Laboratory results as given in article PMC6001238, “Iterative Chemical Engineering of Vancomycin Leads to Novel Vancomycin Analogs With a High in Vitro Therapeutic Index” (Frontiers in Microbiology, 2018).
Values after ≈ are worked out from the molar mass of the structure shown. Like-named read-outs stand apart in the source and are kept apart here.

Assays:
[1] = system: Murine leukemia (L1210) cells; assay: Cytostatic activity, L1210 cell proliferation; assay type: cell-based; conditions: mean ± SD of three experiments; highest concentration tested 250 µM; 2 days; read-out: Toxicity (IC50) L1210
In short: (§1)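 Readout: Coulter cell number after drug exposure at 37°C. Durations differ by line (L1210 2 days; CEM 3 days; HeLa 4 days). Stock suspension 300,000–500,000 cells/mL, diluted by mixing with compound. Endpoint: IC50 vs negative control.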

MRSA KS2 = assay: MIC, broth microdilution, MRSA KS2; assay type: cell-based, Staphylococcus aureus
In short: (§2)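 Following CLSI antimicrobial susceptibility standards, organisms were tested by broth microdilution. Controls comprised ultrapure water plus broth left uninoculated. For a single condition, 10 μM vancomycin (final) accompanied the analog or control agent.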

S. aureus VRSA = assay: MIC, broth microdilution, vancomycin-resistant S. aureus (VRSA); assay type: cell-based, Staphylococcus aureus
In short: as §2

MRSA KS1 = assay: MIC, broth microdilution, MRSA KS1; assay type: cell-based, Staphylococcus aureus
In short: as §2

VE 149 (VanB) = assay: MIC, VanB-type VRE strain VE 149; assay type: cell-based, Enterococcus; conditions: VE 149, VanB; read-out: MIC
In short: as §2

MRSA = assay: Minimum bactericidal concentration against MRSA; assay type: cell-based, Staphylococcus aureus
Procedure: Plates were incubated overnight at 37°C and colony growth was inspected.

[2] = system: Clostridium difficile ATJ ribotype 014/20; assay: MIC, plate drop assay, C. difficile ATJ ribotype 014/20; assay type: cell-based; conditions: C. difficile ATJ ribotype 014/20
In short: (§3)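 Twofold dilution series of test compounds were spotted onto C. difficile lawns in 0.4% BHI agar containing added calcium and magnesium salts. After overnight anaerobic incubation at 37°C, growth inhibition was scored by spot clearing; triplicate runs, ultrapure water negative control.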

[3] = system: human cervix carcinoma (HeLa) cells; assay: Cytostatic activity, HeLa cell proliferation; assay type: cell-based; conditions: mean ± SD of three experiments; highest concentration tested 250 µM; 4 days; read-out: Toxicity (IC50) HeLa
In short: as §1

VE 150 (VanB) = assay: MIC, VanB-type VRE strain VE 150; assay type: cell-based, Enterococcus; conditions: VE 150, VanB; read-out: MIC
In short: as §2

[4] = system: Clostridium difficile AIU ribotype 027; assay: MIC, plate drop assay, C. difficile AIU ribotype 027; assay type: cell-based; conditions: C. difficile AIU ribotype 027
In short: as §3

E. faecalis VRE 6 = assay: MIC, broth microdilution, vancomycin-resistant E. faecalis VRE 6 (VanA); assay type: cell-based, Enterococcus faecalis
In short: as §2

33 clinical VRE isolates = assay: MIC against a set of 33 clinical VRE isolates (range, MIC50, TI); assay type: cell-based, Enterococcus faecalis
In short: as §2

[5] = system: human T-lymphocyte (CEM) cells; assay: Cytostatic activity, CEM cell proliferation; assay type: cell-based; conditions: mean ± SD of three experiments; highest concentration tested 250 µM; 3 days; read-out: Toxicity (IC50) CEM
In short: as §1

VE 157 (VanB) = assay: MIC, VanB-type VRE strain VE 157; assay type: cell-based, Enterococcus; conditions: VE 157, VanB; read-out: MIC
In short: as §2

VE 82 (VanC1) = assay: MIC, VanC1-type VRE strain VE 82; assay type: cell-based, Enterococcus gallinarum; conditions: VE 82, VanC1; read-out: MIC
In short: as §2

S. aureus VISA/HIP5827 = assay: MIC, broth microdilution, vancomycin-intermediate S. aureus VISA HIP5827; assay type: cell-based, Staphylococcus aureus; conditions: VISA/HIP5827; ratio of MIC of vancomycin and MIC of analogue
In short: as §2

MRSA KS89 = assay: MIC, broth microdilution, MRSA KS89; assay type: cell-based, Staphylococcus aureus
In short: as §2

E. faecalis VRE 29 = assay: MIC, broth microdilution, vancomycin-resistant E. faecalis VRE 29 (VanA); assay type: cell-based, Enterococcus faecalis
In short: as §2

[6] = system: L1210, CEM and HeLa cell lines; assay: Cytostatic activity, average or summary over L1210, CEM and HeLa; assay type: cell-based
In short: as §1

VE 152 (VanB) = assay: MIC, VanB-type VRE strain VE 152; assay type: cell-based, Enterococcus; conditions: VE 152, VanB; read-out: MIC
In short: as §2

[7] = system: S. aureus VSSA (ATCC 6538); assay: MIC, broth microdilution, vancomycin-sensitive S. aureus (VSSA/MSSA, ATCC 6538); assay type: cell-based, Staphylococcus aureus
In short: as §2

E. faecalis VSE 1 = assay: MIC, broth microdilution, vancomycin-sensitive E. faecalis (VSE 1); assay type: cell-based, Enterococcus faecalis
In short: as §2

[8] = system: 24 clinical MRSA isolates; assay: MIC against a set of 24 clinical MRSA isolates (range, MIC50, TI); assay type: cell-based, Staphylococcus aureus
In short: as §2

E. faecalis VRE 53 = assay: MIC, broth microdilution, vancomycin-resistant E. faecalis VRE 53 (VanA); assay type: cell-based, Enterococcus faecalis
In short: as §2

VE 148 (VanB) = assay: MIC, VanB-type VRE strain VE 148; assay type: cell-based, Enterococcus; conditions: VE 148, VanB; read-out: MIC
In short: as §2

MRSA KS6 = assay: MIC, broth microdilution, MRSA KS6; assay type: cell-based, Staphylococcus aureus
In short: as §2

E. faecalis VRE 37 = assay: MIC, broth microdilution, vancomycin-resistant E. faecalis VRE 37 (VanA); assay type: cell-based, Enterococcus faecalis
In short: as §2

## CNC(CC(C)C)C(=O)NC1C(=O)NC(CC(N)=O)C(=O)NC2C(=O)NC3C(=O)NC(C(=O)NC(C(=O)NCCCNC(=O)c4cc5ccccc5[nH]4)c4cc(O)cc(O)c4-c4cc3ccc4O)C(O)c3ccc(c(Cl)c3)Oc3cc2cc(c3OC2OC(CO)C(O)C(O)C2OC2CC(C)(N)C(O)C(C)O2)Oc2ccc(cc2Cl)C1O (stereo not shown) [Vanc-24]
[1]
  IC50: 164 ± 20 µM
MRSA KS2; MRSA KS2, ratio of MIC of vancomycin and MIC of analogue
  MIC-fold improvement vs. vancomycin: 4
MRSA KS2; Staphylococcus aureus MRSA KS2, read-out: MIC
  MIC: 0.20 µM (≈ 0.33 µg/mL)
S. aureus VRSA; Staphylococcus aureus VRSA, read-out: MIC
  MIC: 1.56 µM (≈ 2.57 µg/mL)
S. aureus VRSA; VRSA, ratio of MIC of vancomycin and MIC of analogue
  MIC-fold improvement vs. vancomycin: 64
MRSA KS1; MRSA KS1, ratio of MIC of vancomycin and MIC of analogue
  MIC-fold improvement vs. vancomycin: 2
MRSA KS1; Staphylococcus aureus MRSA KS1, read-out: MIC
  MIC: 0.39 µM (≈ 0.643 µg/mL)
VE 149 (VanB)
  MIC: 1.56 µM (≈ 2.57 µg/mL)
MRSA
  MBC relative to MIC: MBC equaling their MIC values
[2]
  MIC-fold improvement vs. vancomycin: 11
[3]
  IC50: 83 ± 9 µM
VE 150 (VanB)
  MIC: 1.56 µM (≈ 2.57 µg/mL)
[4]
  MIC-fold improvement vs. vancomycin: 14
E. faecalis VRE 6; Enterococcus faecalis VRE 6 (vancomycin-resistant), read-out: MIC
  MIC: 0.78 µM (≈ 1.29 µg/mL)
E. faecalis VRE 6; VRE 6, ratio of MIC of vancomycin and MIC of analogue
  MIC-fold improvement vs. vancomycin: 256
33 clinical VRE isolates; 33 clinical VRE isolates
  MIC Range: 3.13 to 50 µM
33 clinical VRE isolates; in vitro therapeutic index, VRE
  TI (IC50/MIC50): 26
33 clinical VRE isolates; median MIC, 33 clinical VRE isolates, read-out: MIC50
  MIC50: 6.25 µM (≈ 10.3 µg/mL)
[5]
  IC50: 248 ± 3 µM
VE 157 (VanB)
  MIC: 1.56 µM (≈ 2.57 µg/mL)
VE 82 (VanC1)
  MIC: 0.39 µM (≈ 0.643 µg/mL)
S. aureus VISA/HIP5827
  MIC-fold improvement vs. vancomycin: 32
MRSA KS89; MRSA KS8, ratio of MIC of vancomycin and MIC of analogue
  MIC-fold improvement vs. vancomycin: 2
MRSA KS89; Staphylococcus aureus MRSA KS8, read-out: MIC
  MIC: 0.39 µM (≈ 0.643 µg/mL)
E. faecalis VRE 29; Enterococcus faecalis VRE 29 (vancomycin-resistant), read-out: MIC
  MIC: 12.5 µM (≈ 20.6 µg/mL)
E. faecalis VRE 29; VRE 29, ratio of MIC of vancomycin and MIC of analogue
  MIC-fold improvement vs. vancomycin: 32
[6]; average IC50 used for TI in Table S5, >250 entered as 250, read-out: IC50
  IC50: 165 µM
[6]; average of L1210, CEM and HeLa, read-out: Toxicity (IC50) Average
  IC50: 165 µM
VE 152 (VanB)
  MIC: 1.56 µM (≈ 2.57 µg/mL)
[7]; Staphylococcus aureus VSSA, read-out: MIC
  MIC: 0.20 µM (≈ 0.33 µg/mL)
[7]; VSSA, ratio of MIC of vancomycin and MIC of analogue
  MIC-fold improvement vs. vancomycin: 4
E. faecalis VSE 1; Enterococcus faecalis VSE 1 (vancomycin-sensitive), read-out: MIC
  MIC: 0.20 µM (≈ 0.33 µg/mL)
E. faecalis VSE 1; VSE 1, ratio of MIC of vancomycin and MIC of analogue
  MIC-fold improvement vs. vancomycin: 8
[8]; 24 clinical MRSA isolates
  MIC Range: 0.10 to 0.78 µM
[8]; in vitro therapeutic index, MRSA
  TI (IC50/MIC50): 825
[8]; median MIC, 24 clinical MRSA isolates, read-out: MIC50
  MIC50: 0.20 µM (≈ 0.33 µg/mL)
E. faecalis VRE 53; Enterococcus faecalis VRE 53 (vancomycin-resistant), read-out: MIC
  MIC: 25 µM (≈ 41.2 µg/mL)
E. faecalis VRE 53; VRE 53, ratio of MIC of vancomycin and MIC of analogue
  MIC-fold improvement vs. vancomycin: 16
VE 148 (VanB)
  MIC: 3.13 µM (≈ 5.16 µg/mL)
MRSA KS6; MRSA KS6, ratio of MIC of vancomycin and MIC of analogue
  MIC-fold improvement vs. vancomycin: 2
MRSA KS6; Staphylococcus aureus MRSA KS6, read-out: MIC
  MIC: 0.39 µM (≈ 0.643 µg/mL)
E. faecalis VRE 37; Enterococcus faecalis VRE 37 (vancomycin-resistant), read-out: MIC
  MIC: 6.25 µM (≈ 10.3 µg/mL)
E. faecalis VRE 37; VRE 37, ratio of MIC of vancomycin and MIC of analogue
  MIC-fold improvement vs. vancomycin: 64
